Where two headings read alike, the source gives them in different places.
Assays:
WEE1 kinase = molecular target: T1, WEE1 kinase (Homo sapiens, UniProt P30291); test: Inhibitory effect of compound on WEE1 kinase in vitro (ELISA); type: biochemical; settings: ATP concentration of Km
T1 construct: purchased CarnaBiosciences, Inc. 05-177
Method: The tested compounds were screened on WEE1 kinase with ATP concentration of Km by ELISA. Compounds were screened on WEE1 kinase to evaluate the kinase inhibitory activity of the tested compounds. In the detection process, the initial concentration of the tested compounds was all selected as 100 nM, and each compound was selected with 6 gradient dilution concentrations, the gradient dilution ratio was 4-fold, and two replicate wells were detected for each concentration, MK1775 was used as the standard control.
WEE1, purchased from CarnaBiosciences, Inc., Item No. 05-177; dimethyl sulfoxide, purchased from Sigma-Aldrich, Item No. D8418; ATP, purchased from Sigma-Aldrich, Item No. A7699; DTT solution, purchased from Sigma-Aldrich, Item No. 43816; protein tyrosine kinase (PTK) substrate (poly-Glu-Tyr), purchased from Sigma-Aldrich, Item No. P4476; P-Tyr (PY99), purchased from Santa Cruz, Item No. sc-7020; Anti-mouse IgG HRP-linked Antibody, purchased from Santa Cruz, Item No. 7076S; TMB liquid Substrate System, purchased from Sigma-Aldrich, Item No. T0440; Costar Stripwell Microplate No Lid 1×8 Flat Bottom, Certified High Binding, purchased from Sigma-Aldrich, Item No. 42592; 96-well compound plate, purchased from Thermo Scientific, Item No. 267245.
• 1. Coating substrate: 1) An appropriate volume of substrate storage solution protein tyrosine kinase (PTK) substrate (poly-Glu-Tyr) was taken, diluted 10 times with PBS, and the concentration was diluted from […]. The mixture was added to a high adsorption 96-well plate at 125 μL per well. The plate was placed in an incubator at 37° C. for overnight coating. 2) After 24 hours, the 96-well plate was taken out, the liquid in the 96-well plate was poured out, cleaned with washing buffer for 3 times, and the incubator at 37° C. was inverted and dried for 2 hours. • 2. Compound preparation and transfer: 1) compound dilution: 10 mM of the test compound storage solution was taken, the compound in 96-well compound plate was diluted with DMSO in multiple steps to obtain the initial concentration of 100× compound as the first concentration, and then DMSO was used for 4-fold gradient dilution, for a total of 6 concentrations; after that, 2 μL of the gradient dilution solution was added to 48 μL of 1× reaction buffer respectively to prepare 4× compound; 2) 4× compounds were transferred: 10 μL of 4× compounds from the 96-well compound plate configured in the previous step were transferred into the dried high adsorption 96-well plate; 10 μL of the following liquids were added to the compound-free control wells and ATP-control wells: 2 μL of DMSO was added to 48 μL of 1× reaction buffer. • 3. Enzyme reaction stage: 1) WEE1 kinase and ATP were prepared into 2× enzyme solution and 4×ATP solution respectively with 1× reaction buffer. In this screening, the final concentration of WEE1 kinase was: 0.15 ng/μL and the final concentration of ATP was: […]; 2) 20 μL of enzyme solution of 2 was added to the high adsorption 96-well plate; 3) 10 μL of 4×ATP solution was added to the high adsorption 96-well plate and 10 μL of 1× reaction buffer was added to the ATP-control group; 4) the plate was placed in HERAEUS Multifuge X1R centrifuge at 2000 rpm for 20 s and then placed at room temperature and reacted for 60 min. • 4. Reaction termination stage: 1) the reaction mixture in the plate was poured out, 200 μL of washing buffer was added to each well, and washed for 5 times; the primary antibody P-Tyr (PY99) (dilution ratio 1:2000) was added, 100 μL per well, at room temperature for 30 min. 2) The primary antibody in the plate was poured out, 200 μL of washing buffer was added to each well, and washed for 5 times; the second antibody Anti-mouse IgG HRP-linked Antibody (dilution ratio 1:2000) was added, 100 μL per well, at room temperature for 30 min.

[1] = Bioavailability test in vivo in mice (pharmacokinetics, iv and intragastric); design: species or system ICR mice; settings: for Cmax / MRT / Tmax / clearance / half-life / Vd / bioavailability: ICR, mouse, plasma; for bioavailability: po 10 mg/kg vs iv 3 mg/kg, read-out: F (absolute bioavailability)
Method: 404.6 μL of DMSO was added to the compound powder of the present disclosure until the compound was completely dissolved, and 50 mg/mL mother liquor was prepared in a clarified state.
The compound of the present disclosure: 24 μL of mother liquor was accurately measured, diluted to 4 mL according to the ratio of 0.9% normal saline:PEG400=8:2, the preparation concentration was 0.3 mg/mL, the solution was in a clarified state, and it was used as intravenous administration solution. In addition, 80 μL mother liquor was accurately measured, and 0.5% CMC-Na was added to 8 mL to grind it into a uniform suspension with a concentration of 0.5 mg/mL, which was used as intragastric administration solution.
(§1) Intravenous group: 24 ICR mice, 20±2 g, were given the intravenous administration solution of the compound of the present disclosure by intravenous injection, with the volume of 10 mL/kg, with the dose of 3 mg/kg, the blood was taken from the fundus venous plexus of mice, 2, 5, 15, 30, 60, 90, 120, 240, 360, 480, 600 and 1440 minutes before and after administration.
as §1, with “Intragastric group:” for “Intravenous group:”, “the intragastric” for “the intravenous”, “by intragastric” for “by intravenous”, “of 20” for “of 10”, “of 10” for “of 3”, “mice,” for “mice, 2,”
Blood sample was centrifuged at 8000 rpm for 5 min, and the plasma was stored in a centrifuge tube at −20° C. for later use.
300 μL of acetonitrile containing internal standard (Propranolol, 25 ng/mL) was added to 50 μL of plasma samples to precipitate protein, vortexed for 10 min, 6000 g, 4° C., centrifuged for 10 min; the supernatant before intravenous injection for 1 hour was taken, diluted 10 times with acetonitrile containing internal standard, the rest supernatant was kept undiluted, centrifuged for 10 min again at 6000 g, 4° C., and the supernatant was taken and then injected into a 96-well plate.
Dose; peak concentration: Cmax; peak time: Tmax; area under the drug-time curve from AUClast 0 to time t; half-life: T1/2; mean retention time: MRT; clearance: Cl; apparent distribution volume: Vz; steady-state distributed volume: Vss; absolute bioavailability: F.
The pharmacokinetic parameters of the compound in mice after intravenous injection or intragastric administration were shown in Table 4 and Table 5 below.

[2] = iv, 3 mg/kg, iv, 3 mg/kg, read-out: Vss
[3] = iv, 3 mg/kg, iv, 3 mg/kg, read-out: Vz

T1 sequence (P30291 whole entry): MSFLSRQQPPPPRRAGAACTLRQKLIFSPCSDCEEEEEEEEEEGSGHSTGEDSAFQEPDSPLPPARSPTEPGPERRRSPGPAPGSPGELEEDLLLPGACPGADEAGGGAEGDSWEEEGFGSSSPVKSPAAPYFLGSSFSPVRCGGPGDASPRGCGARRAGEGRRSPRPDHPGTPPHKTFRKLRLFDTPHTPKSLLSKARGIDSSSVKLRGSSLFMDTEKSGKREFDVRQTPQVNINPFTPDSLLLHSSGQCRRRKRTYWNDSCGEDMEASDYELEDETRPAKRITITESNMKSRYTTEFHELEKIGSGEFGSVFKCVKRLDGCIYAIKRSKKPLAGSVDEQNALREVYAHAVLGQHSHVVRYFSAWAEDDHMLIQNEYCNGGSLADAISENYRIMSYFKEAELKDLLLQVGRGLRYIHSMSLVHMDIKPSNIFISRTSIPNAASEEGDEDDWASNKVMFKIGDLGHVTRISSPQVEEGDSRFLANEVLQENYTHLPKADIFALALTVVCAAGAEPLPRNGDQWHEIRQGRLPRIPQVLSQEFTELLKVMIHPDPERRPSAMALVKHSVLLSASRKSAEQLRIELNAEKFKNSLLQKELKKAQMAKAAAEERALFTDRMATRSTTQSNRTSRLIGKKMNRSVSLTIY

C=CCn1c(=O)c2cnc(Nc3ccc4c(c3)CCC(N(C)C)C4)nc2n1-c1cccc(C(C)(C)O)n1 (stereo not shown) [Control 2, reference compound]
IC50 (WEE1 kinase): 1.98 nM
Cmax ([1]; iv, 3 mg/kg): 646 ± 76.8 ng/mL
MRT ([1]; iv, 3 mg/kg): 0.86 ± 0.16 h
Tmax ([1]; iv, 3 mg/kg): 0.03 h
clearance ([1]; iv, 3 mg/kg): 188 mL/min/kg
half-life ([1]; iv, 3 mg/kg): 1.37 ± 0.33 h
Vd [1, 2]: 9.69 ± 0.96 L/kg
Vd [1, 3]: 22.2 ± 3.29 L/kg
bioavailability [1]: 9.19%
Cmax ([1]; po (intragastric), 10 mg/kg): 27.8 ± 4.76 ng/mL
MRT ([1]; po (intragastric), 10 mg/kg): 3.78 ± 1.56 h
Tmax ([1]; po (intragastric), 10 mg/kg): 1.67 ± 2.02 h
half-life ([1]; po (intragastric), 10 mg/kg): 2.51 ± 1.85 h
AUClast ([1]; iv, 3 mg/kg): 261.52 ± 26.93 (h) (ng/mL)
AUClast ([1]; po (intragastric), 10 mg/kg): 80.15 ± 9.62 (h) (ng/mL)

C=CCn1c(=O)c2cnc(Nc3ccc(C4CCC(N5CCC5)CC4)cc3)nc2n1-c1cccc(C(C)(C)O)n1 (stereo not shown) [Compound I-8]
IC50 (WEE1 kinase): 1.52 nM
Cmax ([1]; iv, 3 mg/kg): 644 ± 132 ng/mL
MRT ([1]; iv, 3 mg/kg): 1.11 ± 0.08 h
Tmax ([1]; iv, 3 mg/kg): 0.03 h
clearance ([1]; iv, 3 mg/kg): 155 mL/min/kg
half-life ([1]; iv, 3 mg/kg): 1.22 ± 0.1 h
Vd [1, 2]: 10.3 ± 0.86 L/kg
Vd [1, 3]: 16.3 ± 2.48 L/kg
bioavailability [1]: 60.3%
Cmax ([1]; po (intragastric), 10 mg/kg): 58.1 ± 7.09 ng/mL
MRT ([1]; po (intragastric), 10 mg/kg): 3.47 ± 1.22 h
Tmax ([1]; po (intragastric), 10 mg/kg): 1.67 ± 0.29 h
half-life ([1]; po (intragastric), 10 mg/kg): 1.57 ± 0.39 h
AUClast ([1]; iv, 3 mg/kg): 317.5 ± 34.41 (h) (ng/mL)
AUClast ([1]; po (intragastric), 10 mg/kg): 637.9 ± 302.3 (h) (ng/mL)

C=CCn1c(=O)c2cnc(Nc3ccc(C4CCC(N(C)C)CC4)cc3)nc2n1-c1cccc(C(C)(C)O)n1 (single isomer, unassigned) [Compound I-1-1]
IC50 (WEE1 kinase): 1.9 nM
Cmax ([1]; iv, 3 mg/kg): 701 ± 142 ng/mL
MRT ([1]; iv, 3 mg/kg): 1.75 ± 0.46 h
Tmax ([1]; iv, 3 mg/kg): 0.03 h
clearance ([1]; iv, 3 mg/kg): 129 mL/min/kg
half-life ([1]; iv, 3 mg/kg): 4.31 ± 1.51 h
Vd [1, 2]: 13.6 ± 3.95 L/kg
Vd [1, 3]: 48.5 ± 18.4 L/kg
bioavailability [1]: 42.6%
Cmax ([1]; po (intragastric), 10 mg/kg): 245 ± 220 ng/mL
MRT ([1]; po (intragastric), 10 mg/kg): 4.33 ± 9.02 h
Tmax ([1]; po (intragastric), 10 mg/kg): 2.5 ± 1.32 h
half-life ([1]; po (intragastric), 10 mg/kg): 3.1 ± 9.02 h
AUClast ([1]; iv, 3 mg/kg): 372.5 ± 24.38 (h) (ng/mL)
AUClast ([1]; po (intragastric), 10 mg/kg): 528.6 ± 331.1 (h) (ng/mL)

C=CCn1c(=O)c2cnc(Nc3ccc(C4CCC(C(=O)O)CC4)cc3)nc2n1-c1cccc(C(C)(C)O)n1 (stereo not shown) [Compound I-5, 4-(4-((2-allyl-1-(6-(2-hydroxypropan-2-yl)pyridin-2-yl)-3-oxo-2,3-dihydro-1H-pyrazolo[3,4-d]pyrimidin-6-yl)amino)phenyl)cyclohexane-1-carboxylic acid]
IC50 (WEE1 kinase): 7.15 nM

C=CCn1c(=O)c2cnc(Nc3ccc(C4CCC(NS(C)(=O)=O)CC4)cc3)nc2n1-c1cccc(C(C)(C)O)n1 (stereo not shown) [Compound I-19, N-(4-(4-((2-allyl-1-(6-(2-hydroxypropan-2-yl)pyridin-2-yl)-3-oxo-2,3-dihydro-1H-pyrazolo[3,4-d]pyrimidin-6-yl)amino)phenyl)cyclohexyl)methanesulfonamide]
IC50 (WEE1 kinase): 3.89 nM

C=CCn1c(=O)c2cnc(Nc3ccc(C4CCC(C#N)CC4)cc3)nc2n1-c1cccc(C(C)(C)O)n1 (stereo not shown) [Compound I-23]
IC50 (WEE1 kinase): 0.71 nM

C=CCn1c(=O)c2cnc(Nc3ccc(C4CCC(N(C)C)CC4)cc3)nc2n1-c1cccc(C(C)(C)O)n1 (single isomer, unassigned) [Compound I-1-2]
IC50 (WEE1 kinase): 2.08 nM

C=CCn1c(=O)c2cnc(Nc3ccc(C4CCC(C(=O)OCC)CC4)cc3)nc2n1-c1cccc(C2(O)COC2)n1 (stereo not shown) [Compound I-39]
IC50 (WEE1 kinase): 2.08 nM

C=CCn1c(=O)c2cnc(Nc3ccc(C4CCC(C(=O)N(C)C)CC4)cc3)nc2n1-c1cccc(C(C)(C)O)n1 (stereo not shown) [Compound I-6]
IC50 (WEE1 kinase): 6.76 nM

C=CCn1c(=O)c2cnc(Nc3ccc(C4CCC(NC)CC4)cc3)nc2n1-c1cccc(C2(O)COC2)n1 (stereo not shown) [Compound I-33]
IC50 (WEE1 kinase): 4.22 nM

C=CCn1c(=O)c2cnc(Nc3ccc(C4CCC(N(C)C)CC4)cc3)nc2n1-c1cccc(C2(O)COC2)n1 (single isomer, unassigned) [Compound I-15-1]
IC50 (WEE1 kinase): 1.52 nM

C=CCn1c(=O)c2cnc(Nc3ccc(C4CC(N(C)C)C4)cc3)nc2n1-c1cccc(C(C)(C)O)n1 (stereo not shown) [Compound I-31, 2-allyl-6-((4-(3-(dimethylamino)cyclobutyl)phenyl)amino)-1-(6-(2-hydroxypropan-2-yl)pyridin-2-yl)-1,2-dihydro-3H-pyrazolo[3,4-d]pyrimidin-3-one]
IC50 (WEE1 kinase): 2.05 nM

C=CCn1c(=O)c2cnc(Nc3ccc(C4CCC(=NOC)CC4)cc3)nc2n1-c1cccc(C(C)(C)O)n1 (stereo not shown) [Compound I-32]
IC50 (WEE1 kinase): 7.39 nM

C=CCn1c(=O)c2cnc(Nc3ccc(C4CCC(N5CCCC5)CC4)cc3)nc2n1-c1cccc(C(C)(C)O)n1 (single isomer, unassigned) [Compound I-3-1]
IC50 (WEE1 kinase): 0.35 nM

C=CCn1c(=O)c2cnc(Nc3ccc(C4CCC(N(C)C(=O)C5CC5)CC4)cc3)nc2n1-c1cccc(C2(O)COC2)n1 (stereo not shown) [Compound I-34]
IC50 (WEE1 kinase): 3.3 nM

C=CCn1c(=O)c2cnc(Nc3ccc(C4CCC(C(=O)NC5CC5)CC4)cc3)nc2n1-c1cccc(C(C)(C)O)n1 (stereo not shown) [Compound I-17]
IC50 (WEE1 kinase): 4.05 nM

From US12612408B2, “Pyrazolone-fused pyrimidine compound, preparation method for same and applications thereof” (SHANGHAI PHARMACEUTICALS HOLDING CO., LTD., priority 2019, dated 2026)
